Assay results as given in patent US7420001B2 (Wyeth, priority 2003, dated 2008).
pIC50: −log10 of the molar value. Where a name gives a salt, the structure may show the parent alone.

What was measured:
[1] = biological target: T1, MMP-2 (Homo sapiens, UniProt P08253); assay: In-vitro fluorescence assay of MMP-2 activity; assay type: biochemical; conditions: recombinant human MMP-2; read-out: MMP-2 IC50
T1 construct: purchased Oncogene Research Products (Calbiochem) PF023
T1 sequence (P08253 110-660): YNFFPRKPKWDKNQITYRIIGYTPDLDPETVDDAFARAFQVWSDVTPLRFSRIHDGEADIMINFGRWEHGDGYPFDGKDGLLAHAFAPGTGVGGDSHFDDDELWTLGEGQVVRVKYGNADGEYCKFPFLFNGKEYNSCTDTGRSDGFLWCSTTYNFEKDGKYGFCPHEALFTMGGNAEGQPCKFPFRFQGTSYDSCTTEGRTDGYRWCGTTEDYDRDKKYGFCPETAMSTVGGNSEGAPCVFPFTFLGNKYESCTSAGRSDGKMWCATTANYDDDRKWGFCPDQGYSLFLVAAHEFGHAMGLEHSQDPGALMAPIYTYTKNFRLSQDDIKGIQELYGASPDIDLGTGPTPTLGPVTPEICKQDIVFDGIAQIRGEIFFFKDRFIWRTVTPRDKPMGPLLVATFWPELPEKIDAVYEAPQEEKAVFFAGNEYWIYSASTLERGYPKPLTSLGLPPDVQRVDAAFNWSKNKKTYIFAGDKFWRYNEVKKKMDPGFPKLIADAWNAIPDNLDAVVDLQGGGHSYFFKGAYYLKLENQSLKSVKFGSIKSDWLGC

[2] = biological target: T2, MMP-13 (Homo sapiens, UniProt P45452); assay: In-vitro fluorescence assay of MMP-13 activity; assay type: biochemical; conditions: recombinant human catalytic domain of MMP-13; read-out: MMP-13 IC50
T2 construct: made in house

Structure (SMILES)	pIC50 [1]	pIC50 [2]
Cc1c(C(=O)Nc2ccc(-c3ccc(S(=O)(=O)N[C@H](C(=O)O)C(C)C)cc3)cc2)oc2cccc(CCC3CC3)c12 [Example 24, L-2-(4′-{[4-(2-Cyclopropyl-ethyl)-3-methyl-benzofuran-2-carbonyl]-amino}-biphenyl-4-sulfonylamino)-3-methyl-butyric acid]	5.10	7.62
COC/C=C\c1cccc2oc(C(=O)Nc3ccc(-c4ccc(S(=O)(=O)N[C@H](C(=O)O)C(C)C)cc4)cc3)c(C)c12 [Example 25, L-2-(4′-{[4-(3-Methoxy-Z-propenyl)-3-methyl-benzofuran-2-carbonyl]-amino}-biphenyl-4-sulfonylamino)-3-methyl-butyric acid]	5.20	7.85
Cc1c(C(=O)Nc2ccc(-c3ccc(S(=O)(=O)N[C@H](C(=O)O)C(C)C)cc3)cc2)oc2cccc(C#CCO)c12 [Example 26, L-2-(4′-{[4-(3-Hydroxy-prop-1-ynyl)-3-methyl-benzofuran-2-carbonyl]-amino}-biphenyl-4-sulfonylamino)-3-methyl-butyric acid]	5.47	8.21
Cc1c(C(=O)Nc2ccc(-c3ccc(S(=O)(=O)N[C@H](C(=O)O)C(C)C)cc3)cc2)oc2cccc(CCCO)c12 [Example 27, L-2-(4′-{[4-(3-Hydroxy-propyl)-3-methyl-benzofuran-2-carbonyl]-amino}-biphenyl-4-sulfonylamino)-3-methyl-butyric acid]	5.36	8.15
Cc1c(C(=O)Nc2ccc(-c3ccc(S(=O)(=O)N[C@H](C(=O)O)C(C)C)cc3)cc2)oc2cccc(C#CCC(C)C)c12 [Example 28, L-3-Methyl-2-(4′-{[3-methyl-4-(4-methyl-pent-1-ynyl)-benzofuran-2-carbonyl]-amino}-biphenyl-4-sulfonylamino)-butyric acid]	5.18	7.33
Cc1c(C(=O)Nc2ccc(-c3ccc(S(=O)(=O)N[C@H](C(=O)O)C(C)C)cc3)cc2)oc2cccc(CCCC(C)C)c12 [Example 29, L-3-Methyl-2-(4′-{[3-methyl-4-(4-methyl-pentyl)-benzofuran-2-carbonyl]-amino}-biphenyl-4-sulfonylamino)-butyric acid]	5.03	7.43
Cc1c(C(=O)Nc2ccc(-c3ccc(S(=O)(=O)N[C@H](C(=O)O)C(C)C)cc3)cc2)oc2cccc(CCCN(C)C)c12 [Example 32, L-2-(4′-{[4-(3-Dimethylamino-propyl)-3-methyl-benzofuran-2-carbonyl]-animo}-biphenyl-4-sulfonylamino)-3-methyl-butyric acid]	5.50	7.68
C#Cc1cccc2oc(C(=O)Nc3ccc(-c4ccc(S(=O)(=O)N[C@H](C(=O)O)C(C)C)cc4)cc3)c(C)c12 [Example 33, L-2-{4′-[(4-Ethynyl-3-methyl-benzofuran-2-carbonyl)-amino]-biphenyl-4-sulfonylamino}-3-methyl-butyric acid]	6.23	8.21
Cc1c(C(=O)Nc2ccc(-c3ccc(S(=O)(=O)N[C@H](C(=O)O)C(C)C)cc3)cc2)oc2cccc(C#CC(C)(C)C)c12 [Example 34, L-2-(4′-{[4-(3,3-Dimethyl-but-1-ynyl)-3-methyl-benzofuran-2-carbonyl]-amino}-biphenyl-4-sulfonylamino)-3-methyl-butyric acid]	5.60	6.82
Cc1c(C(=O)Nc2ccc(-c3ccc(S(=O)(=O)N[C@H](C(=O)O)C(C)C)cc3)cc2)oc2cccc(N(C)S(C)(=O)=O)c12 [Example 37, L-2-(4′-{[4-(Methanesulfonyl-methyl-animo)-3-methyl-benzofuran-2-carbonyl]-amino}-biphenyl-4-sulfonylamino)-3-methyl-butyric acid]	5.63	7.80
Cc1c(C(=O)Nc2ccc(-c3ccc(S(=O)(=O)N[C@H](C(=O)O)C(C)O)cc3)nc2)oc2cccc(NS(C)(=O)=O)c12 (stereo partly drawn) [Example 38, L-3-Hydroxy-2-(4-{5-[(4-methanesulfonylamino-3-methyl-benzofuran-2-carbonyl)-amino]-pyridin-2-yl}-benzenesulfonylamino)-butyric acid]	5.05	7.55
Cc1c(C(=O)Nc2ccc(-c3ccc(S(=O)(=O)N[C@H](C(=O)O)C(C)C)cc3)nc2)oc2cccc(NS(C)(=O)=O)c12 [Example 39, L-2-(4-{5-[(4-Methanesulfonylamino-3-methyl-benzofuran-2-carbonyl)-amino]-pyridin-2-yl}-benzenesulfonylamino)-3-methyl-butyric acid]	5.12	7.52
Cc1c(C(=O)Nc2ccc(-c3ccc(S(=O)(=O)N[C@H](C(=O)O)C(C)C)cc3)nc2)oc2cccc(C#N)c12 [Example 40, L-2-(4-{5-[(4-Cyano-3-methyl-benzofuran-2-carbonyl)-amino]-pyridin-2-yl}-benzenesulfonylamino)-3-methyl-butyric acid]	5.55	7.79
Cc1c(C(=O)Nc2ccc(-c3ccc(S(=O)(=O)N[C@@H](C(=O)O)C(C)C)cc3)cc2)oc2cccc(NS(C)(=O)=O)c12 [Example 41, D-2-{4-[(4-Methanesulfonylamino-3-methyl-benzofuran-2-carbonyl)-amino]-biphenyl-4-sulfonylamino}-3-methyl-butyric acid]	5.84	8.07
Cc1c(C(=O)Nc2ccc(-c3ccc(S(=O)(=O)N(C)[C@H](C(=O)O)C(C)C)cc3)cc2)oc2cccc(C#N)c12 [Example 42, L-2-({4′-[(4-Cyano-3-methyl-benzofuran-2-carbonyl)-amino]-biphenyl-4-sulfonyl}-methyl-amino)-3-methyl-butyric acid]	5.80	7.39
CNC(=O)c1cccc2oc(C(=O)Nc3ccc(-c4ccc(S(=O)(=O)N[C@H](C(=O)O)C(C)C)cc4)cc3)c(C)c12 [Example 43A, (L-3-methyl-2-{4′-[(3-methyl-4-methylcarbamoyl-benzofuran-2-carbonyl)-amino]-biphenyl-4-sulfonylamino}-butyric acid triethylamine salt]	5.17	7.66
Cc1c(C(=O)Nc2ccc(-c3ccc(S(=O)(=O)N[C@H](C(=O)O)C(C)C)cc3)cc2)oc2cccc(C(=O)N(C)C)c12 [Example 43B, 2-{4′-[(4-dimethylcarbamoyl-3-methyl-benzofuran-2-carbonyl)-amino]-biphenyl-4-sulfonylamino}-3-methyl-butyric acid triethylamine salt]	5.11	7.74
Cc1c(C(=O)Nc2ccc(-c3ccc(S(=O)(=O)N[C@H](C(=O)O)C(C)C)cc3)cc2)oc2ccc(Br)cc12 [Example 45, 2-{4′-[(5-Bromo-3-methyl-benzofuran-2-carbonyl)-amino]-biphenyl-4-sulfonylamino}-3-methyl-butyric acid]	7.09	8.52
CCC(=O)Nc1cccc2oc(C(=O)Nc3ccc(-c4ccc(S(=O)(=O)N[C@H](C(=O)O)C(C)C)cc4)cc3)c(C)c12 [Example 49, L-3-Methyl-2-{4′-[(3-methyl-4-propionylamino-benzofuran-2-carbonyl)-amino]-biphenyl-4-sulfonylamino}-butyric acid]	5.24	7.46
